From patent publication US20230333019A1, “TWO-PHOTON FLUORESCENT PROBES FOR SIMULTANEOUSLY DETECTING CALCIUM IONS IN ORGANELLES AND LYSOSOMAL PROTONS” (Korea University Research and Business Foundation, priority 2022, published 2023)
Read-outs that look alike come from different tables or passages of the source. Marks after values point to notes of the source that are not given here.

Legend:
[1] = Fluorescence titration with Ca2+ in calcium calibration buffer (apparent dissociation constant, FEF); format: binding; conditions: for FEF, fluorescence enhancement factor (Fmax-Fmin)/Fmin: one-photon, complexation with Ca2+ in CB
Description: (§1) A dissociation constant (Kd) for binding the probe to Ca^2+ was measured using a conventionally known method. Calcium calibration buffers (CBs; 10 mM 3-[N-morpholino]propanesulfonic acid [MOPS], 100 mM KCl, pH 7.2) containing Ca^2+ at concentrations of 0 to 40 μM were prepared using a calcium calibration buffer kit (Biotium, CA, USA). A buffer containing […] or more of Ca^2+ was prepared by adding an appropriate amount of CaCl2 to a MOPS buffer. Probes (BCa-3°mem at a concentration of 0.3 μM and BCa-1 and BCa-2mito at concentrations of 0.1 μM) were added to calcium CB and fluorescence intensity was measured. Each Kd was calculated through a resultant titration curve. In addition, in order to evaluate a fluorescence titration of FHEt-1lyso, the fluorescence intensity was measured by adding FHEt-1lyso probe at a concentration of 0.6 μM in a universal buffer (UB; 0.1 M citric acid, 0.1 M KH2PO4, 0.1 M Na2B4O7, 0.1 M tris[hydroxymethyl]aminomethane, 0.1 M KCl) at pH 4 to 11. The pKa value was calculated through a titration curve.

HeLa cells [2] = test: Dual-color TPM of cytoplasmic Ca2+ and lysosomal pH, monensin; format: cell-based; conditions: monensin 20 μM
Description: To simultaneously monitor changes in lysosomal pH and cytoplasmic [Ca^2+], HeLa cells were co-labeled with a mixture of BCa-1-AM (3 μM) and FHEt-1lyso (1 μM). The cells were washed twice with RB, once with RB containing 5 mM EGTA, and twice with RB containing 0.1 mM EGTA. The TPEF intensity of the cells was measured before and after adding monensin (20 μM, Sigma-Aldrich) to EtOH.
Whether BCa-1 and FHEt-1lyso could be used to simultaneously monitor changes in cytoplasmic [Ca^2+ ] and lysosomal pH during dual-color TPM was evaluated. […] Accordingly, it was confirmed that BCa-1 and FHEt-1lyso could be used to simultaneously monitor changes in cytoplasmic [Ca^2+] and lysosomal pH in live cells during dual-color TPM.

HeLa cells [3] = test: TPM detection of cytoplasmic Ca2+, histamine-induced oscillation; format: cell-based
Description: The mixture was cultured (incubated) at 37° C.
Before and after adding histamine dihydrochloride (100 μM, Sigma-Aldrich) to HBSS, Ca^2+ oscillation was evaluated by TPEF intensity monitoring in HeLa cells labeled with BCa-1-AM (2 μM).
Whether BCa-1 may detect Ca^2+ in the cytoplasm was evaluated. […] The increase and decrease of the TPEF intensity were repeated for 800 seconds, which was consistent with the results of previous histamine-induced Ca oscillation studies. Accordingly, it was confirmed that BCa-1 may target the cytoplasm and detect Ca^2+ in the cytoplasm (FIG. 16).

HeLa cells [4] = system: HeLa cells
Description: HeLa cells were purchased from the Korean Cell Line Bank (Seoul, Korea). […] Before two days of imaging, HeLa cells (5×10^4/mL) were plated on a confocal glass bottom dish (#200350, SPL Life Sciences, Gyonggi-do, Korea). The cells were washed with an aqueous buffer (pH 7.4), a Hank's balanced salt solution (HBSS; LB003-02, WelGene Inc., Gyeongsangbuk-do, Korea), or a Ringer's solution (RB; 124 mM NaCl, 26 mM NaHCO3, 10 mM d-glucose, 1.3 mM MgSO4, 3 mM KCl, 1.25 mM NaH2PO4) unless otherwise specified. Thereafter, the probe (0.5 to 3 μM) and Pluronic® F-127 (0.03%, Sigma-Aldrich, St. Louis, MO, USA) were added to the cells in one of the three aqueous buffers (1.0 mL). The mixture was cultured (incubated) at 37° C. (BCa-1-AM and BCa-2mito-AM) for 40 minutes or at room temperature (RT; BCa-3mem) for 10 minutes. The cells labeled with the probe were washed 3 times with each corresponding buffer before imaging.

[5] = Metal ion selectivity, relative fluorescence intensity in MOPS buffer; conditions: for Response to Zn2+ and Mn2+: 100 μM; for Response to Zn2+ and Mn2+ / Response to Mg2+, Fe2+, Cu2+, Co2+: MOPS pH 7.2; for Response to Mg2+, Fe2+, Cu2+, Co2+: Mg2+ 2 mM, Co2+ 100 μM; for Selectivity for Ca2+: versus competing metal ions
Description: FIG. 8 is graphs showing relative fluorescence intensities of (a) BCa-1, (b) BCa-2mito, or (c) BCa−3°mem in the presence of 2 mM Mg^2+ or 100 μM Zn^2+, Mn^2+, Fe^2+, Cu^2+, or Co^2+ (black bars) and according to subsequent addition of 100 μM Ca^2+ (red bars) in a MOPS buffer (30 mM 3[N-morpholino]propanesulfonic acid, 100 mM KCl, pH 7.2). At this time, excitation wavelengths are (a) 363 nm, (b) 355 nm, and (c) 350 nm, respectively.

HeLa cells [6] = test: Effective TP action cross-section (Φδeff) in probe-labeled cells; format: cell-based; conditions: 750 nm
Description: (§2) Φδ and Φδeff for the probes were evaluated using the fluorescence method as reported in other studies (Chem. Asian J. 2015, 10(10):2240-2249).

[7] = Two-photon action cross-section (Φδ); format: physicochemical; conditions: for Φδmax, maximum TP action cross-section: 750 nm, excess Ca2+ (BCa probes) or pH 4.3 (FHEt-1lyso), error ±15%; for Φδ values: absence of Ca2+ (BCa-3°mem) / pH 11 (FHEt-1lyso)
Description: as §2
To evaluate the brightness of the TPM image, a TP action cross-section (Φδ) was measured by a conventionally known method.

[8] = Fluorescence quantum yield; format: physicochemical
Description: Absorption and emission spectra of a two-photon probe (TP probe) were measured using an Agilent 8453 diode array UV-Vis spectrophotometer and a Hitachi fluorescence spectrophotometer F-7000 system using a previously reported method (Chem. Asian J. 2015, 10(10):2240-2249). Fluorescence quantum yield (Φ) was measured by a method used in another study (Anal. Chem. 2011, 83(4):1232-1242) using Coumarin 540A. Two-photon (TP) excitation was implemented using a mode-locked Ti:sapphire laser (Chameleon, 90 MHz, 200 fs; Coherent Inc.).
All of the two-photon probe compounds emitted weak fluorescence at a maximum emission value (4) of 464 to 466 nm and fluorescence quantum yields (0) of 0.027 to 0.063 in CB (10 mM MOPS, 100 mM KCl, pH 7.2). […] The low fluorescence quantum yield (0) values observed with these probes may contribute to efficient photo-induced electron transfer (PeT) from the receptor to the fluorophore (Table 1).

HeLa cells [9] = test: TPM detection of Ca2+ in plasma membrane; format: cell-based
Description: HeLa cells were purchased from the Korean Cell Line Bank (Seoul, Korea). The cells were cultured by a method described in previous studies (Chem. Asian J. 2015, 10(10):2240-2249). Before two days of imaging, HeLa cells (5×10^4/mL) were plated on a confocal glass bottom dish (#200350, SPL Life Sciences, Gyonggi-do, Korea). The cells were washed with an aqueous buffer (pH 7.4), a Hank's balanced salt solution (HBSS; LB003-02, WelGene Inc., Gyeongsangbuk-do, Korea), or a Ringer's solution (RB; 124 mM NaCl, 26 mM NaHCO3, 10 mM d-glucose, 1.3 mM MgSO4, 3 mM KCl, 1.25 mM NaH2PO4) unless otherwise specified. Thereafter, the probe (0.5 to 3 μM) and Pluronic® F-127 (0.03%, Sigma-Aldrich, St. Louis, MO, USA) were added to the cells in one of the three aqueous buffers (1.0 mL). The mixture was cultured (incubated) at 37° C. (BCa-1-AM and BCa-2mito-AM) for 40 minutes or at room temperature (RT; BCa-3mem) for 10 minutes. The cells labeled with the probe were washed 3 times with each corresponding buffer before imaging.
(§3) TP microscopy (TPM) images were obtained using spectral confocal and multiphoton microscopy (Leica TCS SP2; Leica). TPM images of probe-labeled HeLa cells were obtained using a Leica TCS SP2 using a conventional method (Chem. Asian J. 2015, 10(10):2240-2249). Time-dependent changes in TPEF intensity were monitored and measured at intervals of 1.6 to 2.0 seconds in the xyt mode upon excitation at 750 nm. To monitor changes in [Ca^2+ ] in the plasma membrane, the cells were washed successively with RB containing 5, 0.1, and 0 mM of EGTA and then incubated with BCa-3mem (2 μM). The TPEF intensity was measured before and after adding CaCl2 (2 mM) to RB and EGTA (2 mM) in distilled water.
First, whether BCa-3mem may detect Ca^2+ in the plasma membrane was evaluated.

[10] = Water solubility in aqueous buffer; format: physicochemical
Description: The water solubility of BCa-1, BCa-2mito, BCa−3°mem, and FHEt-1lyso in an aqueous buffer (pH 7.4) was evaluated using a conventional fluorescence technique (Chem. Asian J. 2015, 10(10):2240-2249).

HeLa cells [11] = test: TPM lysosome colocalization with BLT-blue; format: cell-based
Text: as §3
Whether FHEt-1lyso may detect H^+ in the lysosome was evaluated. […] Therefore, it was confirmed that FHEt-1lyso had the ability to detect H^+ in the lysosome by targeting the lysosome.

[12] = Fluorescence titration of FHEt-1lyso against pH in universal buffer (pKa); format: physicochemical; conditions: for pKa: universal buffer (UB)
Description: as §1
Meanwhile, the fluorescence titration of FHEt-1lyso was performed in UB at pH 4 to 11. […] Therefore, it was confirmed that FHEt-1lyso may detect pH in live cells.

[13] = from fluorescence titration curve, CB, read-out: Dissociation constant Kd
[14] = in the absence of excess Ca2+, CB pH 7.2
[15] = in the presence of excess Ca2+ (in parentheses)

| SMILES | Kd [1, 13] | FEF, fluorescence enhancement factor (Fmax-Fmin)/Fmin [1] | Response to Zn2+ and Mn2+ [5] | Response to Mg2+, Fe2+, Cu2+, Co2+ [5] | Selectivity for Ca2+ [5] | Φδeff, effective TP action cross-section (HeLa cells [6]) | Φδmax, maximum TP action cross-section [7] | Fluorescence quantum yield Φ [8, 14] | Fluorescence quantum yield Φ [8, 15] | Φδ values [7] | further results |
| --- | --- | --- | --- | --- | --- | --- | --- | --- | --- | --- | --- |
| COCCOCCOc1ccc2oc(-c3ccc4cc(NCC(=O)Nc5ccc(N(CC(=O)OCOC(C)=O)CC(=O)OCOC(C)=O)c(OCCOc6ccccc6N(CC(=O)OCOC(C)=O)CC(=O)OCOC(C)=O)c5)ccc4c3)nc2c1 [BCa-1-AM] | 180 nM | – | – | – | – | – | – | – | – | – | TPEF intensity in the cytoplasm on monensin addition (HeLa cells [2]; 380 to 480 nm): simultaneously increased; Duration of repeated increase and decrease of TPEF intensity (HeLa cells [3]; after histamine): 800 s; TPEF intensity on adding histamine (HeLa cells [3]; histamine 100 μM, cytoplasm): increased and then decreased |
| CC(=O)OCOC(=O)CN(CC(=O)OCOC(C)=O)c1ccc(NC(=O)CNc2ccc3cc(-c4nc5cc(OCCC[P+](c6ccccc6)(c6ccccc6)c6ccccc6)ccc5o4)ccc3c2)cc1OCCOc1c(F)cccc1N(CC(=O)OCOC(C)=O)CC(=O)OCOC(C)=O.[Br-] [BCa-2mito-AM] | 2700 nM | – | – | – | – | – | – | – | – | – | Pearson's colocalization coefficient (A) (HeLa cells [4]; with MitoTracker Red): 0.84 |
| O=C([O-])CN(CC(=O)[O-])c1ccc(NC(=O)CNc2ccc3cc(-c4nc5cc(OCCC[P+](c6ccccc6)(c6ccccc6)c6ccccc6)ccc5o4)ccc3c2)cc1OCCOc1c(F)cccc1N(CC(=O)[O-])CC(=O)[O-].[Br-].[K+].[K+].[K+].[K+] [BCa-2mito] | 2700 nM | 10 | moderate | weak | high | 2000 GM | 70 10^−50 cm^4s/photon (GM) | 0.049^d | (0.50) | – | TPEF intensity in the cytoplasm on FCCP treatment (HeLa cells [4]; FCCP): increased temporarily in the cytoplasm and then gradually decreased to a baseline; TPEF intensity in the mitochondria on FCCP treatment (HeLa cells [4]; FCCP): rapidly decreased |
| CCCCCCOc1ccc2oc(-c3ccc4cc(NCC(=O)Nc5ccc(N(CC(=O)[O-])CC(=O)[O-])c(OCC(=O)N6CCOCC6)c5)ccc4c3)nc2c1.[K+].[K+] [BCa-3mem] | – | – | – | – | – | 4800 GM | – | – | – | – | TPEF intensity upon addition of Ca2+ (HeLa cells [9]; Ca2+ 2 mM): increased; TPEF intensity during treatment with EGTA (HeLa cells [9]; EGTA 2 mM): decreased; Persistence of plasma membrane signals (HeLa cells [9]; labeled HeLa cells): at least 1 hour; Aqueous solubility [10]: too low |
| O=C([O-])CN(CC(=O)[O-])c1ccc(NC(=O)CNc2ccc3cc(-c4nc5ccccc5o4)ccc3c2)cc1OCC(=O)N1CCOCC1.[K+].[K+] [BCa-3°mem] | – | 26 | moderate | weak | high | 4800 GM | 60 10^−50 cm^4s/photon (GM) | 0.027^d | (0.72) | quite low | TPM images in contrast to BCa-3mem (HeLa cells [9]; HeLa cells, 0.5 μM probe): much darker and blurry; FEF, fluorescence enhancement factor (in parentheses) ([1]; TP process, complexation with Ca2+): (25); Kd ([1]; TP process, read-out: Kd^TP): 95000 nM |
| CCN(CC)c1ccc(NC(=O)CNc2ccc3c(c2)C(C)(CC(=O)NCCN(C)C)c2cc(C(C)=O)ccc2-3)cc1 (centres unmarked) [FHEt-1lyso] | – | – | – | – | – | 21000 GM | 70 10^−50 cm^4s/photon (GM) | – | – | quite low | TPEF intensity in the lysosome on monensin addition (HeLa cells [2]; 550 to 660 nm): rapidly decreased; Pearson's colocalization coefficient (A) (HeLa cells [11]): 0.86; FEF, fluorescence enhancement factor (in parentheses) ([12]; TP process, protonation, UB): (24); FEF, fluorescence enhancement factor ([12]; one-photon, protonation, UB): 25; pKa ([12]; TP process, UB, read-out: pKa^TP (in parentheses)): 6.6; pKa ([12]; one-photon fluorescence titration, UB pH 4 to 11, read-out: pKa): 6.5; Fluorescence quantum yield Φ ([8]; at pH 4.3 (in parentheses)): (0.33) |
